Patent US8796001B2, “Metalloenzyme inhibitor compounds” (Viamet Pharmaceuticals, Inc., priority 2011, dated 2014)

Tested on: Puccinia recondita tritici = Puccinia triticina (PUCCRT)
Experiment: Fungicidal activity vs. leaf rust on wheat plants
Type: in vivo
Conditions: wheat (Yuma) sprayed at 50 ppm, inoculated the following day, rated 7-9 days later, read-out: Puccinia Rating (% Disease Control @ 50 ppm)
Excerpt: D. Evaluation of Fungicidal Activity vs. Leaf Rust (Causal Agent Puccinia Recondita Tritici=Puccinia Triticina; Bayer Code PUCCRT)
Each pot contained 3-8 seedlings. These plants were sprayed until wet with the formulated test compounds. The compounds were formulated at 50 ppm in 10 vol. % acetone plus 90 vol. % Triton X water (deionized water 99.99 wt %+0.01 wt % Triton X100), giving a “formulated test compound.” Formulated test compounds were applied to plants using a turn table sprayer fitted with two opposing air atomization nozzles which delivered approximately 1500 L/ha of spray volume. On the following day, the leaves were inoculated with an aqueous spore suspension of Puccinia recondita tritici and the plants were kept in high humidity overnight to permit spores to germinate and infect the leaf. The plants were then transferred to a greenhouse until disease developed on untreated control plants. Disease severity was evaluated 7-9 days later, depending on the speed of disease development.
In each case of Table 3, the Puccinia rating scale is as follows: […]

| Structure (SMILES) | pest or weed control at 50 ppm [%] |
| --- | --- |
| OC(Cn1cnnn1)(c1ccc(F)cc1F)C(F)(F)c1ccc(OCc2ccc(Cl)cc2F)cn1 (stereo not shown) [Compound 1, 1-(5-(4-Chloro-2-fluorobenzyloxy)pyridin-2-yl)-2-(2,4-difluorophenyl)-1,1-difluoro-3-(1H-tetrazol-1-yl)propan-2-ol] | 80 to 100 |
| OC(Cn1cnnn1)(c1ccc(F)cc1F)C(F)(F)c1ccc(OCc2ccc(F)cc2F)cn1 (stereo not shown) [Compound 2, 1-(5-(2,4-Difluorobenzyloxy)pyridin-2-yl)-2-(2,4-difluorophenyl)-1,1-difluoro-3-(1H-tetrazol-1-yl)propan-2-ol] | 80 to 100 |
| OC(Cn1cnnn1)(c1ccc(F)cc1F)C(F)(F)c1ccc(OCc2cccc(F)c2)cn1 (stereo not shown) [Compound 3, 2-(2,4-Difluorophenyl)-1,1-difluoro-1-(5-(3-fluorobenzyloxy)pyridin-2-yl)-3-(1H-tetrazol-1-yl)propan-2-ol] | 80 to 100 |
| N#Cc1ccc(Oc2ccc(C(F)(F)C(O)(Cn3cnnn3)c3ccc(F)cc3F)nc2)cc1 (stereo not shown) [Compound 5, 4-(6-(2-(2,4-Difluorophenyl)-1,1-difluoro-2-hydroxy-3-(1H-tetrazol-1-yl)propyl)pyridin-3-yloxy)benzonitrile] | 80 to 100 |
| OC(Cn1cnnn1)(c1ccc(F)cc1F)C(F)(F)c1ccc(Oc2ccc(F)cc2)cn1 (stereo not shown) [Compound 6, 2-(2,4-Difluorophenyl)-1,1-difluoro-1-(5-(4-fluorophenoxy)pyridin-2-yl)-3-(1H-tetrazol-1-yl)propan-2-ol] | 80 to 100 |
| OC(Cn1cnnn1)(c1ccc(F)cc1F)C(F)(F)c1ccc(Oc2ccc(Cl)cc2)cn1 (stereo not shown) [Compound 7, 1-(5-(4-Chlorophenoxy)pyridin-2-yl)-2-(2,4-difluorophenyl)-1,1-difluoro-3-(1H-tetrazol-1-yl)propan-2-ol] | 80 to 100 |
| COc1ccc(C(F)(F)C(O)(Cn2cnnn2)c2ccc(F)cc2F)nc1 (stereo not shown) [Compound 8, 2-(2,4-Difluorophenyl)-1,1-difluoro-1-(5-methoxypyridin-2-yl)-3-(1H-tetrazol-1-yl)propan-2-ol] | 80 to 100 |
| N#Cc1ccc(COc2ccc(C(F)(F)C(O)(Cn3cnnn3)c3ccc(F)cc3F)nc2)cc1 (stereo not shown) [Compound 9, 4-(((6-(2-(2,4-Difluorophenyl)-1,1-difluoro-2-hydroxy-3-(1H-tetrazol-1-yl)propyl)pyridin-3-yl)oxy)methyl)benzonitrile] | 80 to 100 |
| N#Cc1ccc(COc2ccc(C(F)(F)C(O)(Cn3cnnn3)c3ccc(F)cc3F)nc2)cc1F (stereo not shown) [Compound 10, 4-(((6-(2-(2,4-Difluorophenyl)-1,1-difluoro-2-hydroxy-3-(1H-tetrazol-1-yl)propyl)pyridin-3-yl)oxy)methyl)-2-fluorobenzonitrile] | 80 to 100 |
| OC(Cn1cnnn1)(c1ccc(F)cc1F)C(F)(F)c1ccc(Oc2ccccc2)cn1 (stereo not shown) [Compound 11, 2-(2,4-Difluorophenyl)-1,1-difluoro-1-(5-phenoxypyridin-2-yl)-3-(1H-tetrazol-1-yl)propan-2-ol] | 80 to 100 |
| OC(Cn1cnnn1)(c1ccc(F)cc1F)C(F)(F)c1ccc(OCC(F)(F)F)cn1 (stereo not shown) [Compound 12, 2-(2,4-Difluorophenyl)-1,1-difluoro-3-(1H-tetrazol-1-yl)-1-(5-(2,2,2-trifluoroethoxy)pyridin-2-yl)propan-2-ol] | 80 to 100 |
| N#Cc1ccc(CSc2ccc(C(F)(F)C(O)(Cn3cnnn3)c3ccc(F)cc3F)nc2)c(F)c1 (stereo not shown) [Compound 15, 4-(((6-(2-(2,4-Difluorophenyl)-1,1-difluoro-2-hydroxy-3-(1H-tetrazol-1-yl)propyl)pyridin-3-yl)thio)methyl)-3-fluorobenzonitrile] | 40 to 59 |
| N#Cc1ccc(Oc2ccc(C(F)(F)C(O)(Cn3cnnn3)c3ccc(F)cc3F)nc2)cc1F (stereo not shown) [Compound 17, 4-((6-(2-(2,4-Difluorophenyl)-1,1-difluoro-2-hydroxy-3-(1H-tetrazol-1-yl)propyl)pyridin-3-yl)oxy)-2-fluorobenzonitrile] | 80 to 100 |
| OC(Cn1cnnn1)(c1ccc(F)cc1F)C(F)(F)c1ccc(OCc2ccc(OC(F)(F)F)cc2)cn1 (stereo not shown) [Compound 21, 2-(2,4-Difluorophenyl)-1,1-difluoro-3-(1H-tetrazol-1-yl)-1-(5-((4-(trifluoromethoxy)benzyl)oxy)pyridin-2-yl)propan-2-ol] | 80 to 100 |
| OC(Cn1cnnn1)(c1ccc(F)cc1F)C(F)(F)c1ccc(OCc2ccc(C(F)(F)F)cc2)cn1 (stereo not shown) [Compound 22, 2-(2,4-Difluorophenyl)-1,1-difluoro-3-(1H-tetrazol-1-yl)-1-(5-((4-(trifluoromethyl)benzyl)oxy)pyridin-2-yl)propan-2-ol] | 80 to 100 |
| OC(Cn1cnnn1)(c1ccc(F)cc1F)C(F)(F)c1ccc(OCc2cccc(F)c2F)cn1 (stereo not shown) [Compound 23, 1-(5-((2,3-Difluorobenzyl)oxy)pyridin-2-yl)-2-(2,4-difluorophenyl)-1,1-difluoro-3-(1H-tetrazol-1-yl)propan-2-ol] | 80 to 100 |

| Structure (SMILES) | pest or weed control at 50 ppm [%] |
| --- | --- |
| OC(Cn1cnnn1)(c1ccc(F)cc1F)C(F)(F)c1ccc(OCc2ccc(C(F)(F)F)cc2F)cn1 (stereo not shown) [Compound 24, 2-(2,4-Difluorophenyl)-1,1-difluoro-1-(5-((2-fluoro-4-(trifluoromethyl)benzyl)oxy)pyridin-2-yl)-3-(1H-tetrazol-1-yl)propan-2-ol] | 80 to 100 |
| OC(Cn1cnnn1)(c1ccc(F)cc1F)C(F)(F)c1ccc(OCc2cccc(C(F)(F)F)c2)cn1 (stereo not shown) [Compound 26, 2-(2,4-Difluorophenyl)-1,1-difluoro-3-(1H-tetrazol-1-yl)-1-(5-((3-(trifluoromethyl)benzyl)oxy)pyridin-2-yl)propan-2-ol] | 80 to 100 |
| OC(Cn1cnnn1)(c1ccc(F)cc1F)C(F)(F)c1ccc(OCc2ccc(Cl)c(F)c2)cn1 (stereo not shown) [Compound 27, 1-(5-((4-Chloro-3-fluorobenzyl)oxy)pyridin-2-yl)-2-(2,4-difluorophenyl)-1,1-difluoro-3-(1H-tetrazol-1-yl)propan-2-ol] | 80 to 100 |
| OC(Cn1cnnn1)(c1ccc(F)cc1F)C(F)(F)c1ccc(OCc2ccc(F)c(F)c2)cn1 (stereo not shown) [Compound 28, 1-(5-((3,4-Difluorobenzyl)oxy)pyridin-2-yl)-2-(2,4-difluorophenyl)-1,1-difluoro-3-(1H-tetrazol-1-yl)propan-2-ol] | 80 to 100 |
| COc1cccc(COc2ccc(C(F)(F)C(O)(Cn3cnnn3)c3ccc(F)cc3F)nc2)c1 (stereo not shown) [Compound 34, 2-(2,4-Difluorophenyl)-1,1-difluoro-1-(5-((3-methoxybenzyl)oxy)pyridin-2-yl)-3-(1H-tetrazol-1-yl)propan-2-ol] | 80 to 100 |
| OC(Cn1cnnn1)(c1ccc(F)cc1F)C(F)(F)c1ccc(OCc2cc(F)cc(F)c2)cn1 (stereo not shown) [Compound 35, 1-(5-((3,5-Difluorobenzyl)oxy)pyridin-2-yl)-2-(2,4-difluorophenyl)-1,1-difluoro-3-(1H-tetrazol-1-yl)propan-2-ol] | 80 to 100 |
| OC(Cn1cnnn1)(c1ccc(F)cc1F)C(F)(F)c1ccc(OCc2ccccn2)cn1 (stereo not shown) [Compound 37, 2-(2,4-Difluorophenyl)-1,1-difluoro-1-(5-(pyridin-2-ylmethoxy)pyridin-2-yl)-3-(1H-tetrazol-1-yl)propan-2-ol] | 80 to 100 |
| OC(Cn1cnnn1)(c1ccc(F)cc1F)C(F)(F)c1ccc(OCC2CC2)cn1 (stereo not shown) [Compound 39, 1-(5-(Cyclopropylmethoxy)pyridin-2-yl)-2-(2,4-difluorophenyl)-1,1-difluoro-3-(1H-tetrazol-1-yl)propan-2-ol] | 80 to 100 |
| COc1ccc(COc2ccc(C(F)(F)C(O)(Cn3cnnn3)c3ccc(F)cc3F)nc2)cc1 (stereo not shown) [Compound 41, 2-(2,4-Difluorophenyl)-1,1-difluoro-1-(5-((4-methoxybenzyl)oxy)pyridin-2-yl)-3-(1H-tetrazol-1-yl)propan-2-ol] | 80 to 100 |
| CC(C)Oc1ccc(C(F)(F)C(O)(Cn2cnnn2)c2ccc(F)cc2F)nc1 (stereo not shown) [Compound 42, 2-(2,4-Difluorophenyl)-1,1-difluoro-1-(5-isopropoxypyridin-2-yl)-3-(1H-tetrazol-1-yl)propan-2-ol] | 80 to 100 |
| CC(C)COc1ccc(C(F)(F)C(O)(Cn2cnnn2)c2ccc(F)cc2F)nc1 (stereo not shown) [Compound 43, 2-(2,4-Difluorophenyl)-1,1-difluoro-1-(5-isobutoxypyridin-2-yl)-3-(1H-tetrazol-1-yl)propan-2-ol] | 80 to 100 |
| OC(Cn1cncn1)(c1ccc(F)cc1F)C(F)(F)c1ccc(OCc2cccc(F)c2F)cn1 (stereo not shown) [Compound 45, 1-(5-((2,3-Difluorobenzyl)oxy)pyridin-2-yl)-2-(2,4-difluorophenyl)-1,1-difluoro-3-(1H-1,2,4-triazol-1-yl)propan-2-ol] | 80 to 100 |
| OC(Cn1cnnn1)(c1ccc(F)cc1F)C(F)(F)c1ccc(OCc2ccccc2F)cn1 (stereo not shown) [Compound 46, 2-(2,4-Difluorophenyl)-1,1-difluoro-1-(5-((2-fluorobenzyl)oxy)pyridin-2-yl)-3-(1H-tetrazol-1-yl)propan-2-ol] | 80 to 100 |
| CC(Oc1ccc(C(F)(F)C(O)(Cn2cnnn2)c2ccc(F)cc2F)nc1)C(F)(F)F (stereo not shown) [Compound 47, 2-(2,4-Difluorophenyl)-1,1-difluoro-3-(1H-tetrazol-1-yl)-1-(5-((1,1,1-trifluoropropan-2-yl)oxy)pyridin-2-yl)propan-2-ol] | 80 to 100 |
| OC(Cn1cnnn1)(c1ccc(F)cc1F)C(F)(F)c1ccc(OCc2cccs2)cn1 (stereo not shown) [Compound 49, 2-(2,4-Difluorophenyl)-1,1-difluoro-3-(1H-tetrazol-1-yl)-1-(5-(thiophen-2-ylmethoxy)pyridin-2-yl)propan-2-ol] | 80 to 100 |
